In patent publication US20220033397A1, “PHARMACEUTICAL COMPOUNDS AND THEIR USE AS INHIBITORS OF UBIQUITIN SPECIFIC PROTEASE 19 (USP19)” (ALMAC DISCOVERY LIMITED, priority 2018, published 2022):

Biological target: T1, Full-length USP19 (Homo sapiens, UniProt O94966)
T1 construct: Full-length USP19 was purchased from Boston Biochem (E-576); purchased Boston Biochem E-576
T1 sequence (O94966 1-1318): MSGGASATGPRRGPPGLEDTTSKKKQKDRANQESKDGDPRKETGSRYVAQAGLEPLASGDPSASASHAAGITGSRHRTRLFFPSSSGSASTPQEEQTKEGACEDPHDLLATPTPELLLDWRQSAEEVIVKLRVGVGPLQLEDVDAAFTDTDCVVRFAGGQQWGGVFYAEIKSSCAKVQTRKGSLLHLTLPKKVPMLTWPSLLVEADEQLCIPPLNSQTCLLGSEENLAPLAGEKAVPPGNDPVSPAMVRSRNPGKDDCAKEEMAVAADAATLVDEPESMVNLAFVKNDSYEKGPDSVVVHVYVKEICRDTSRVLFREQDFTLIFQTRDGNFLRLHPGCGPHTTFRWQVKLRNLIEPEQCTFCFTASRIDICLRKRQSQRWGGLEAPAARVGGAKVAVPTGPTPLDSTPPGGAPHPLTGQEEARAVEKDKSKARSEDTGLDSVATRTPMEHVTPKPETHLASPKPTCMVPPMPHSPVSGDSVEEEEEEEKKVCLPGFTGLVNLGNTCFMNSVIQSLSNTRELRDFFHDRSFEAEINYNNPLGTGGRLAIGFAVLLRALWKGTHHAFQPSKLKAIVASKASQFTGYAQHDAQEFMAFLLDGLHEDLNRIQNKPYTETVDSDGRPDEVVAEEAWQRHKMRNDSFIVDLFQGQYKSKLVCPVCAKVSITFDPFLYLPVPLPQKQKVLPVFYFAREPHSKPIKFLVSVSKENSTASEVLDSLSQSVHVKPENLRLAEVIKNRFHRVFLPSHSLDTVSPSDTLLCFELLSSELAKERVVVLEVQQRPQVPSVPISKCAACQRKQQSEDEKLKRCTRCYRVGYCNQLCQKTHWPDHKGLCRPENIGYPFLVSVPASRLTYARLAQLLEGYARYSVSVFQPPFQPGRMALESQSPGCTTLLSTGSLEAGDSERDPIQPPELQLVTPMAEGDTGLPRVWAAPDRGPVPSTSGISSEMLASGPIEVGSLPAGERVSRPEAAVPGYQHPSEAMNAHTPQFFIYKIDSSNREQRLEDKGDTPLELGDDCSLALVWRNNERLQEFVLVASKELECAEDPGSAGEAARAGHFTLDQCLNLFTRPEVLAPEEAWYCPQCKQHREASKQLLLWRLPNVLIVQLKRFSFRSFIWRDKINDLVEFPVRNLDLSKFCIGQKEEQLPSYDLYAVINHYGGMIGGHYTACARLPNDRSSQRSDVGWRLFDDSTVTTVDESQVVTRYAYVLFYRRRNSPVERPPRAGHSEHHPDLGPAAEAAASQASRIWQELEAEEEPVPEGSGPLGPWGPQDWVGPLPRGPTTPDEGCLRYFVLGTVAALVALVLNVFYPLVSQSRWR
Assay: USP19 fluorescence polarisation (FP) homogeneous assay with Ubiquitin-Lys-TAMRA substrate
Type: biochemical
Settings: 2.5 nM USP19, 30 min pre-incubation, average of at least two duplicate experiments
Description: Unless otherwise stated, all other reagents were purchased from Sigma. Enzymatic reactions were conducted in black flat bottom polystyrene 384-well plates (Nunc) and 30 μL total volume. […] Inhibitors were stored as 10 mM DMSO stocks in an inert environment (low humidity, dark, low oxygen, room temperature) using the Storage Pod System and serial dilutions were prepared in buffer just prior to the assay (from 200 μM to 2 μM, 8-18 data point curve).
Following incubation at RT for 30 min, the enzymatic reactions were initiated by dispensing the Ub substrate (500 nM, 10 μL). FP was measured every 15 min over a period of 90 min (within the linear range of the assay) using a Synergy 4 plate reader (BioTek) exciting at 530 nm and measuring the amount of parallel and perpendicular light at 575 nm. The FP signal was subsequently normalised to the no compound control.

Structure (SMILES) | IC50 [µM]
CN(C)C(=O)C1CN(C[C@@]2(O)CCN(C(=O)[C@H](CO)CC3CCCCC3)CC2(C)C)C(=O)CC1c1ccccc1 (stereo partly drawn) [Example 25, 1-(((R)-1-((S)-3-Cyclohexyl-2-(hydroxymethyl)propanoyl)-4-hydroxy-3,3-dimethylpiperidin-4-yl)methyl)-N,N-dimethyl-6-oxo-4-phenylpiperidine-3-carboxamide] | 5 to 50
C[C@H](CC1CCCCC1)C(=O)N1CCC(O)(CN2Cc3ccccc3C2=O)C(C)(C)C1 (stereo partly drawn) [Example 27, 2-((1-((R)-3-Cyclohexyl-2-methylpropanoyl)-4-hydroxy-3,3-dimethylpiperidin-4-yl)methyl)isoindolin-1-one] | 5 to 50
C[C@H](CC(F)(F)F)C(=O)N1CCC(O)(CN2CCOCC2=O)C2(CCCC2)C1 (stereo partly drawn) [Example 32, 4-((10-Hydroxy-7-((R)-4,4,4-trifluoro-2-methylbutanoyl)-7-azaspiro[4.5]decan-10-yl)methyl)morpholin-3-one] | 50 to 250
CCCn1c(=O)n(CC2(O)CCN(C(=O)[C@H](C)CC3CCCCC3)CC23CCCC3)c2ccccc21 (stereo partly drawn) [Example 33, 1-((7-((R)-3-Cyclohexyl-2-methylpropanoyl)-10-hydroxy-7-azaspiro[4.5]decan-10-yl)methyl)-3-propyl-1,3-dihydro-2H-benzo[d]imidazol-2-one] | 5 to 50
C[C@H](CC1CCCCC1)C(=O)N1CCC(O)(CN2CC(CO)CC2=O)C2(CCCC2)C1 (stereo partly drawn) [Example 34, 1-((7-((R)-3-Cyclohexyl-2-methylpropanoyl)-10-hydroxy-7-azaspiro[4.5]decan-10-yl)methyl)-4-(hydroxymethyl)pyrrolidin-2-one] | 5 to 50
C[C@H](CC1CCCCC1)C(=O)N1CCC(O)(CN2C(=O)C(=O)c3ccccc32)C2(CCCC2)C1 (stereo partly drawn) [Example 36, 1-((7-((R)-3-Cyclohexyl-2-methylpropanoyl)-10-hydroxy-7-azaspiro[4.5]decan-10-yl)methyl)indoline-2,3-dione] | 5 to 50
CC(CC1CCCCC1)C(=O)N1CCC(O)(CN2C(=O)c3ccccc3C2=O)C(C)(C)C1 (stereo not drawn) [Example 42, 2-((1-(3-Cyclohexyl-2-methylpropanoyl)-4-hydroxy-3,3-dimethylpiperidin-4-yl)methyl)isoindoline-1,3-dione] | 50 to 250
CC(CC1CCCCC1)C(=O)N1CCC(O)(CN2CC(Cc3ccccc3)CC2=O)CC1 (stereo not drawn) [Example 43, 4-Benzyl-1-((1-(3-cyclohexyl-2-methylpropanoyl)-4-hydroxypiperidin-4-yl)methyl)pyrrolidin-2-one] | 5 to 50
CC(Cc1ccccc1)C(=O)N1CCC(O)(CN2CC(Cc3ccccc3)CC2=O)C(C)(C)C1 (stereo not drawn) [Example 44, 4-Benzyl-1-((4-hydroxy-3,3-dimethyl-1-(2-methyl-3-phenylpropanoyl)piperidin-4-yl)methyl)pyrrolidin-2-one] | 50 to 250
CC1(C)CN(C(=O)CCC2CCCCC2)CCC1(O)CN1CC(Cc2ccccc2)CC1=O (stereo not drawn) [Example 45, 4-Benzyl-1-((1-(3-cyclohexylpropanoyl)-4-hydroxy-3,3-dimethylpiperidin-4-yl)methyl)pyrrolidin-2-one] | 50 to 250
CC(CC1CCCCC1)C(=O)N1CCC(O)(CN2CC3(CCCCC3)CC2=O)C(C)(C)C1 (stereo not drawn) [Example 46, 2-((1-(3-Cyclohexyl-2-methylpropanoyl)-4-hydroxy-3,3-dimethylpiperidin-4-yl)methyl)-2-azaspiro[4.5]decan-3-one] | 50 to 250
C[C@H](CC1CCCCC1)C(=O)N1CCC(O)(CN2CCN(C(=O)OCc3ccccc3)CC2=O)C2(CCCC2)C1 (stereo partly drawn) [Example 47, Benzyl 4-((7-((R)-3-cyclohexyl-2-methylpropanoyl)-10-hydroxy-7-azaspiro[4.5]decan-10-yl)methyl)-3-oxopiperazine-1-carboxylate] | 0.5 to 5
C[C@H](CC1CCCCC1)C(=O)N1CCC(O)(CN2CCN(S(C)(=O)=O)CC2=O)C2(CCCC2)C1 (stereo partly drawn) [Example 49, 1-((7-((R)-3-Cyclohexyl-2-methylpropanoyl)-10-hydroxy-7-azaspiro[4.5]decan-10-yl)methyl)-4-(methylsulfonyl)piperazin-2-one] | 0.5 to 5
C[C@H](CC1CCCCC1)C(=O)N1CCC(O)(Cn2nc3ccccn3c2=O)C(C)(C)C1 (stereo partly drawn) [Example 51, 2-((1-((R)-3-Cyclohexyl-2-methylpropanoyl)-4-hydroxy-3,3-dimethylpiperidin-4-yl)methyl)-[1,2,4]triazolo[4,3-a]pyridin-3(2H)-one] | 5 to 50

Continued, values first:

IC50 [µM] | Structure (SMILES)
< 0.5 | CN(C)C(=O)C1CN(C[C@]2(O)CCN(C(=O)[C@H](CO)CC3CCCCC3)CC2(C)C)C(=O)CC1c1ccccc1 (stereo partly drawn) [Example 26, 1-(((S)-1-((S)-3-Cyclohexyl-2-(hydroxymethyl)propanoyl)-4-hydroxy-3,3-dimethylpiperidin-4-yl)methyl)-N,N-dimethyl-6-oxo-4-phenylpiperidine-3-carboxamide]
0.5 to 5 | C[C@H](CC1CCCCC1)C(=O)N1CCC(O)(CN2CC(Cc3ccccc3)CC2=O)C(C)(C)C1 (stereo partly drawn) [Example 30, 4-Benzyl-1-((1-((R)-3-cyclohexyl-2-methylpropanoyl)-4-hydroxy-3,3-dimethylpiperidin-4-yl)methyl)pyrrolidin-2-one]
< 0.5 | C[C@H](CC1CCCCC1)C(=O)N1CCC(O)(CN2CCOCC2=O)C2(CCCC2)C1 (stereo partly drawn) [Example 31, 4-((7-((R)-3-Cyclohexyl-2-methylpropanoyl)-10-hydroxy-7-azaspiro[4.5]decan-10-yl)methyl)morpholin-3-one]
0.5 to 5 | C[C@H](CC1CCCCC1)C(=O)N1CCC(O)(CN2C(=O)COc3cccnc32)C2(CCCC2)C1 (stereo partly drawn) [Example 35, 4-((7-((R)-3-Cyclohexyl-2-methylpropanoyl)-10-hydroxy-7-azaspiro[4.5]decan-10-yl)methyl)-2H-pyrido[3,2-b][1,4]oxazin-3(4H)-one]
0.5 to 5 | C[C@H](CC1CCCCC1)C(=O)N1CCC(O)(CN2C(=O)COc3c(N)cccc32)C2(CCCC2)C1 (stereo partly drawn) [Example 37, 8-Amino-4-((7-((R)-3-cyclohexyl-2-methylpropanoyl)-10-hydroxy-7-azaspiro[4.5]decan-10-yl)methyl)-2H-benzo[b][1,4]oxazin-3(4H)-one]
< 0.5 | C[C@H](CC1CCCCC1)C(=O)N1CCC(O)(CN2CCN(C(=O)OC(C)(C)C)CC2=O)C2(CCCC2)C1 (stereo partly drawn) [Example 38, tert-Butyl 4-((7-((R)-3-cyclohexyl-2-methylpropanoyl)-10-hydroxy-7-azaspiro[4.5]decan-10-yl)methyl)-3-oxopiperazine-1-carboxylate]
0.5 to 5 | C[C@H](CC1CCCCC1)C(=O)N1CCC(O)(CN2CCNCC2=O)C2(CCCC2)C1 (stereo partly drawn) [Example 39]
0.5 to 5 | C[C@H](CC1CCCCC1)C(=O)N1CCC(O)(CN2CC(Cc3ccccc3)CC2=O)C2(CCCC2)C1 (stereo partly drawn) [Example 41, 4-Benzyl-1-((7-((R)-3-cyclohexyl-2-methylpropanoyl)-10-hydroxy-7-azaspiro[4.5]decan-10-yl)methyl)pyrrolidin-2-one]
< 0.5 | CC(=O)N1CCN(CC2(O)CCN(C(=O)[C@H](C)CC3CCCCC3)CC23CCCC3)C(=O)C1 (stereo partly drawn) [Example 48, 4-Acetyl-1-((7-((R)-3-cyclohexyl-2-methylpropanoyl)-10-hydroxy-7-azaspiro[4.5]decan-10-yl)methyl)piperazin-2-one]
< 0.5 | C[C@H](CC1CCCCC1)C(=O)N1CCC(O)(CN2CCN(c3ccccc3)CC2=O)C2(CCCC2)C1 (stereo partly drawn) [Example 50, 1-((7-((R)-3-Cyclohexyl-2-methylpropanoyl)-10-hydroxy-7-azaspiro[4.5]decan-10-yl)methyl)-4-phenylpiperazin-2-one]
